Assay results taken from patent publication US20110217240A1, “IMAGING NEUROLEPTIC COMPOUNDS” (priority 2008, published 2011).

Test system: apomorphine-induced dopaminergic neurotransmission
Assay: BOLD fMRI of neuronal/glial activity in conscious rats pre-treated with an antipsychotic and challenged with apomorphine
Assay type: in vivo, rat
Conditions: for neuronal/glial activity in the anterior thalamic nuclei / neuronal/glial activity in the pituitary gland: antipsychotic pre-treatment i.p. (chlorpromazine, clozapine, olanzapine 5 mg/kg; haloperidol 1 mg/kg)
Excerpt: To image the brain activity of live rats (Charles River Laboratories, Wilmington, Mass.), the rats were anesthetized with 2-3% isoflurane (Abbott Laboratories, North Chicago, Ill.). Nine (9) rats were used for each experimental condition. A topical anesthetic of 10% lidocaine gel was applied to the skin and soft tissue around the ear canals and over the bridge of the nose. A plastic semi-circular headpiece with blunted ear supports that fit into the ear canals was positioned over the ears. The head was placed into a cylindrical head holder with the rat's canines secured over a bite bar and ears positioned inside the head holder with adjustable screws fitted into lateral sleeves. An adjustable, receive-only surface coil built into the head holder was pressed firmly on the head and locked into place. The body of the rat was placed into a body restrainer. The body restrainer “floats” down the center of the chassis connecting at the front and rear end-plates and buffered by rubber gaskets. The head piece locks into a mounting post on the front of the chassis. This design isolates all of the body movements from the head restrainer and minimizes motion artifact. Once the rat was positioned in the body holder, a transmit-only volume coil was slid over the head restrainer and locked into position.
When the rats were fully conscious, the restraining unit was placed into a black opaque tube mock scanner with a tape-recording of an MRI pulse sequence. This acclimation protocol lasted for 60 minutes in order to simulate the bore of the magnet and the imaging protocol. This procedure was repeated every other day for four days.
Experiments were conducted in a Bruker Biospec 4.7-T/40-cm horizontal magnet (Oxford Instrument, Oxford, U.K.) equipped with a Biospec Bruker console (Bruker, Billerica, Mass., U.S.A.) and a 20 G/cm magnetic field gradient insert (internal diameter=12 cm) capable of a 120 μs rise time (Bruker). Radiofrequency (RF) signals were sent and received with the dual coil electronics built into the animal restrainer (Ludwig et al., 2004, J. Neurosci. Methods 132(2):125-35). The volume coil for transmitting RF signal features an 8-element microstrip line configuration in conjunction with an outer copper shield. The arch-shaped geometry of the receiving surface coil provides excellent coverage and high signal-to-noise. To prevent mutual coil interference, the volume and surface coils were actively tuned and detuned.
Functional images were acquired using a multi-slice fast spin echo sequence. A single data acquisition included twelve (12), 1.2 mm slices collected in 6 seconds (field of view (FOV) 3.0 cm; data matrix 64×64; repetition time (TR) 1.43 sec, effective echo time (Eff TE) 53.3 msec, echo time (TE) 7 msec; rapid acquisition with relaxation enhancement (RARE) factor 16, number of excitations (NEX) 1). This sequence was repeated 100 times in a 10 minute imaging session, consisting of 5 minutes of baseline data followed by 5 minutes of stimulation data. At the beginning of each imaging session, a high resolution anatomical data set was collected using a RARE pulse sequence (12 slice; 1.2 mm; FOV 3.0 cm; 256×256; TR 2.1 sec; TE 12.4 msec; NEX 6; 7 minute acquisition time).
For each subject, rigid body motion in x-, y- and z-direction was computed with Stimulate software (Strupp, 1996, NeuroImage 3:S607) using center of intensity method. […] A conservative criteria of 120 μm standard deviation of motion in any direction was set as acceptance criteria.

[1] = apomorphine 20 μg/10 μl ICV, BOLD fMRI, conscious rat
[2] = then apomorphine 20 μg/10 μl ICV, BOLD fMRI, conscious rat
[3] = pre-treatment 5 mg/kg i.p., then apomorphine 20 μg/10 μl ICV, BOLD fMRI, conscious rat

Structure (SMILES) | activation of the anterior thalamic nuclei by apomorphine [1] | activation of the dorsal striatum by apomorphine [1] | activation of the pituitary gland by apomorphine [1] | activation of the mesocorticolimbic dopamine system (reward pathway) by apomorphine (apomorphine alone, 20 μg/10 μl ICV, BOLD fMRI, conscious rat) | change in BOLD signal intensity in the pituitary gland (time course following ICV administration of apomorphine (FIG. 3A)) | change in BOLD signal intensity in the anterior thalamic nuclei (time course following ICV administration of apomorphine (FIG. 3B)) | change in BOLD signal intensity in the dorsal striatum (time course following ICV administration of apomorphine (FIG. 3C)) | neuronal/glial activity in the dorsal striatum (antipsychotic pre-treatment i.p. (chlorpromazine, clozapine, olanzapine 5 mg/kg), then apomorphine 20 μg/10 μl ICV, BOLD fMRI, conscious rat) | neuronal/glial activity in the anterior thalamic nuclei [2] | neuronal/glial activity in the pituitary gland [2] | neuronal/glial activity in the CA1 region of the hippocampus [3] | neuronal/glial activity in the CA3 region of the hippocampus [3] | neuronal/glial activity in the dentate gyms region of the hippocampus [3] | neuronal/glial activity in the subiculum region of the hippocampus [3] | neuronal/glial activity throughout the hippocampus [3]
CN1CCc2cccc3c2[C@H]1Cc1ccc(O)c(O)c1-3 [apomorphine] | activated | activated | activated | activated | increased | increased | increased | – | – | – | – | – | – | – | –
CN(C)CCCN1c2ccccc2Sc2ccc(Cl)cc21 [chlorpromazine] | – | – | – | – | – | – | – | reduced | pronounced reduction | pronounced reduction | significant reduction in neuronal/glial activity | significant reduction in neuronal/glial activity | significant reduction in neuronal/glial activity | significant reduction in neuronal/glial activity | selective reduction in activity
O=C(CCCN1CCC(O)(c2ccc(Cl)cc2)CC1)c1ccc(F)cc1 [haloperidol] | – | – | – | – | – | – | – | – | reducing apomorphine-induced neuronal/glial activity | reducing apomorphine-induced neuronal/glial activity | – | – | – | – | –
